Source: patent US20210177778A1, “EXOSOME PRODUCTION PROMOTER” (DAICEL CORPORATION, priority 2017, published 2021)

System: Human neuroblastoma-derived SH-SY5Y cell
Experiment: Number of exosome particles released by SH-SY5Y cells after sphingolipid addition (qNano)
Assay type: cell-based
Conditions: 10 μM sphingolipid, 24 hours, particles per mg cell protein
Experimental: Human neuroblastoma-derived SH-SY5Y cell was used as the cultured cell. After the cell was inoculated in a 6-well plate at 2.5×10^5 cells/well together with a medium (50% Ham's F12/50% E-MEM) and cultured at 37° C. for 24 hours, the animal ceramide (Cer), sphingomyelin (SM), or glucosylceramide (GuCer) sphingolipid was each added to each well. The sphingolipid was suspended in a serum-free medium (50% Ham's F12/50% E-MEM) containing 3% bovine serum albumin (BSA), and added so that the concentration in the well was 10 μM. The control was performed when the added amount of sphingolipid was 0 μM. […]
The exosome recovered by the centrifugation method was suspended in a HEPES/KCl buffer, and then the number of particles was measured with a nanoparticle analyzer qNano (Izon Inc.). The measured value was expressed as the number of particles per protein mass (mg) of the derived cell calculated by the BCA method. […]
Experimental Example 2 was performed under the same conditions as in the above Experimental Example 1 except that the konjac-derived glucosylceramide (kGluCer) or the konjac-derived ceramide (kCer) are used as the sphingolipid and sphingolipids having concentrations of 5 μM, 7.5 μM, or 10 μM, respectively, were added to the cell in place of a concentration of 0 μM (control), and the number of exosome particles was measured.

| Compound | number of exosome particles compared to the control |
| --- | --- |
| CCCCCCCCCCCCC/C=C/[C@@H](O)[C@H](CO)NC(=O)CCCCC [C6 ceramide, N-hexanoyl-D-erythro-sphingosine] | further promoted |
| CCCCCCCCCCCCC/C=C/[C@@H](O)[C@H](CO)NC(=O)CCCCCCCCCCCCCCCCC [C18 ceramide, N-stearoyl-D-erythro-sphingosine] | further promoted |
